Assay results from patent US20060293264A1, “STAT3 decoy oligonucleotides and uses therefor” (priority 2004, published 2006).

Key:
Cyclin D1 [1] = assay: Cyclin D1 expression by immunoblotting in SCCHN cells in vitro; format: cell-based, human; conditions: 1483 cells; 25 μM, 6 days; p<0.0001
Description: (§1) Immunoblotting. Whole cell extracts were mixed with 2× sodium dodecyl sulfate (SDS) sample buffer (125 mmol/L Tris-HCL, pH 6.8; 4% SDS; 20% glycerol; 10% 2 mercaptoethanol) at 1:1 ratio and were heated for 5 min at 100° C. Proteins (50 μg/lane) were separated by 12.5% SDS-PAGE and transferred onto a nitrocellulose membrane (MSI; Westboro, Mass). Prestained molecular weight markers (GIBCO BRL; Gaithersburg, MD) were included in each gel. Membranes were blocked for 30 min in Tris-buffered saline (TBS: 10 mmol/L Tris-HCL, pH 7.5 and 150 mmol/L NaCl) with 0.5% Tween-20 (TBST) and 5% BSA. […] Quantification of Cyclin D1 and Bcl-xL was performed by using a Molecular Dynamics Personal Densitometer SI and IMAGEQUANT software (Image Products International, Chantilly, Va.). Immunoblotting bands were quantified by densitometry and the Molecular Analyst software (AlphaDigidoc 1000, Alpho-Innotech) with normalization of each band to their corresponding loading control (Xi, S., et al. J Biol Chem, 278: 31574-31583, 2003). […]
(§2) As shown above, treatment with the STAT3 decoy abrogates STAT3 target gene expression in vivo. […] The data were analyzed using parametric analysis of variance of a two-way factorial design. […]

Cyclin D1 [2] = assay: Cyclin D1 expression by immunoblotting in harvested xenografts; format: in vivo, human; conditions: decoy alone, p=0.0022
Description: as §1, with “BSA. After blocking, membranes were incubated with a primary antibody; rabbit anti-human VEGF polyclonal antibody, rabbit anti-human Cyclin D1 polyclonal antibody, mouse anti-human Bcl-xL monoclonal antibody, or rabbit anti-human PCNA polyclonal antibody (Santa Cruz Biotechnology, Santa Cruz, Calif.), in TBST and 1% BSA.” for “BSA.”

Bcl-xL = Bcl-xL expression by immunoblotting in SCCHN cells in vitro; format: cell-based, human; conditions: 1483 cells; 25 μM, 6 days; p<0.0001
Description: as §1, §2

SCCHN cells = assay: Incorporation of decoy into SCCHN cells, fluorescence labeled flow cytometry; format: cell-based; conditions: SCCHN cells in vitro, previously assessed
[3] = test system: normal mucosal epithelial cells; conditions: cited from earlier work
SCCHN cells (1483) = assay: Annexin 5-Cy3 apoptosis assay in SCCHN cells; format: cell-based; conditions: 1483 cells; 25 μM, 6 days; p<0.0001
Description: SCCHN cells (1483) were treated with mutant control decoy (25 μM), or STAT3 decoy alone (25 μM), or cisplatin alone (20 μM), or STAT3 decoy (25 μM) plus cisplatin (20 μM). Mutant control decoy or STAT3 decoy was always applied for a total of 6 days, and cisplatin was added for the last 24 hr before harvesting. The effects of the STAT3 decoy plus cisplatin on apoptosis was assessed by an Annexin 5-Cy3 apoptosis assay (BioVision Research Products, 2455-D Old Middlefield Way, Mountain View, Calif. 94043 USA) and Bcl-xL and Cyclin D1 were examined using immunoblotting as described below.
Following treatment with STAT3 decoy plus cisplatin, SCCHN cells were detached by trypsinization, counted and pelleted (1000 r.p.m. for 5 min). Cell pellets were washed once with PBS (pH 7.4) and resuspended in 100 μl Annexin V binding buffer (10 mM HEPES, pH 7.4, 140 mM NaCl, 2.5 mM CaCl2). […] The membranes of apoptotic cells are stained a bright orange color when analyzed with a fluorescence microscope. The ratio (percentage) of apoptotic to total cells (apoptotic plus non-apoptotic cells) was calculated for each high power field. For each treatment, 5-10 high power fields of view were quantitated on each section.

Substance: STAT3 decoy (sense CATTTCCCGTAAATC; antisense GATTTACGGGAAATG; phosphorothioate modified, further chemistry not given here; listed as Homo sapiens)
- Cyclin D1 expression compared with mutant control decoy (Cyclin D1 [1]): decreased
- Cyclin D1 expression levels compared with mutant control decoy (Cyclin D1 [2]): significant effect
- Bcl-xL expression compared with mutant control decoy (Bcl-xL): decreased
- cells in which decoy was detected (SCCHN cells): > 90%
- toxicity to normal mucosal epithelial cells [3]: lack toxicity
- apoptosis compared with mutant control decoy (SCCHN cells (1483)): increased
